One molecule from patent publication US20220047773A1, “SELF-ELIMINATING COATINGS” (Interface Biologics, Inc., priority 2007, published 2022) can be followed below.

A short description of the data set: Partitioning in 1-octanol/PBS system. Format: physicochemical. The method, then: The partitioning of Compounds synthesized in Examples 1-13 was measured in a 1-octanol/PBS system. The partitioning correlates with the lipophilicity of the Compounds, and is used to predict the adsorption and distribution of Compounds under investigation. 1-octanol and PBS were thoroughly mixed to provide PBS-saturated 1-octanol in the top phase and 1-octanol-saturated PBS in the bottom phase. Solutions of Compounds 1, 2, 3, 6, 7, 8, 9, 10, 11, 12, 16, PTX, and SIBS (0.05 mL) were added to each vial of 1-octanol/PBS. The vials were rocked for 4 hours, ensuring good contact between the phases. An aliquot of the organic phase from each sample was then analyzed by GPC (THF mobile phase, RI), which had been calibrated using known concentrations of each compound. The area under the RI peak was used to estimate the concentration of each compound in the organic phase. The mass of each Compound was then used to calculate the weight percentage in organic phase by the following formula: (mass of Compound in 1-octanol phase/total mass)×100%. The partition coefficient was calculated according to the following formula: log([Compound in 1-octanol]/[Compound in PBS]). […]

For the molecule `CC(=O)O[C@H]1C(=O)[C@@]2(C)[C@H]([C@H](OC(=O)c3ccccc3)[C@]3(O)C[C@H](OC(=O)[C@H](O)[C@@H](NC(=O)c4ccccc4)c4ccccc4)C(C)=C1C3(C)C)[C@]1(OC(C)=O)CO[C@@H]1C[C@@H]2O` [PTX, paclitaxel, reference compound], the logD at 4 h worked out at 1. In addition, the “wt % in 1-octanol” value (1-octanol/PBS, rocked 4 hours, GPC of organic phase) is reported as 94%.
